Entries after “also recorded” stand apart in the source; their conditions may differ.

The values below come from patent publication US20030224978A1, “Compounds and methods for modulating apoptosis” (McGill University, priority 1996, published 2003).

Assay [1] deals with human skin. Description: Human skin permeability, penetration of fluorescent markers, Franz Cell apparatus. Conditions: compared to N-Ac-CHGVC-NH2. As to the method:
A third cell adhesion assay involves evaluating the effect of a cyclic peptide on permeability of adherent epithelial and/or endothelial cell layers. For example, the effect of permeability on human skin may be evaluated. Such skin may be derived from a natural source or may be synthetic. Human abdominal skin for use in such assays may generally be obtained from humans at autopsy within 24 hours of death. Briefly, a cyclic peptide and a test marker (e.g., the fluorescent markers Oregon Green™ and Rhodamine Green™ Dextran) may be dissolved in a sterile buffer, and the ability of the marker to penetrate through the skin and into a receptor fluid may be measured using a Franz Cell apparatus (Franz, Curr. Prob. Dermatol. 7:58-68, 1978; Franz, J. Invest. Dermatol. 64:190-195, 1975). In general, a modulating agent that enhances the permeability of human skin results in a statistically significant increase in the amount of marker in the receptor compartment after 6-48 hours in the presence of 500 μg/mL modulating agent. This assay evaluates the effect of a modulating agent on E-cadherin mediated cell adhesion.
Abdominal skin from humans at autopsy within 24 hours of death was used in these assays. The effect of N-Ac-CHAVC-NH2 (SEQ ID NO:10) and N-Ac-CHGVC-NH2 (SEQ ID NO:20), used at a concentration of 500 μg/ml or 2.5 mg/ml, on the penetration of two fluorescent markers, Oregon Green 488 (charge −1, MW 386 daltons) and Rhodamine Green 3000 Dextran (no charge, MW 3000 daltons) through human skin was then evaluated utilizing a Franz Cell apparatus (Franz, Curr. Prob. Dermatol. 7:58-68, 1978; Franz, J. Invest. Dermatol. 64:190-195, 1975). The peptides and markers were dissolved in sterile phosphate buffer, pH 7.2, and phosphate buffer was used as the receptor fluid. 150 μl of solution containing 0.2 mg Oregon Green and 1.0 mg Rhodamine Green was used to evaluate 500 μg/ml peptide; 200 μl of solution containing 0.05 mg Oregon Green and 1.250 mg Rhodamine Green was used to evaluate 2.5 mg/ml peptide. The solution was placed on top of the epidermal side of the skin, and the penetration of the markers through the skin was assessed using a fluorescent spectrophotometric method (in a Perkin Elmer 650-105 Fluorescence Spectrophotometer, and comparing the reading to a standard curve) at 6, 12, 24, 36, and 48 hours after the start of the experiment. The fluorescent units were converted to a concentration unit of microgram/5 ml (volume of the receiver compartment) using a standard curve and regression analysis equations. The curve was linear for the concentrations tested for both markers (r^2=1 for OrG and 0.997 for RhG). For each peptide and marker combination, the experiment was performed in triplicate.

Assay [2] has as its system control 3T3 cells. Description: Neurite outgrowth of rat cerebellar neurons on control 3T3 cells (Example 14). The note with it: increasing concentrations. Format: cell-based. As to the method:
Cell culture and neurite outgrowth assays. Co-cultures of cerebellar neurons on monolayers of control 3T3 cells and monolayers of transfected 3T3 cells that express physiological levels of chick N-cadherin or human L1 were established as previously described (Williams et al., Neuron 13:583-594, 1994). In brief, 80,000 3T3 cells (control and transfected) were plated into individual chambers of an eight-chamber tissue culture slide coated with polylysine and fibronectin and cultured in DMEM/10% FCS. After 24 hours, when confluent monolayers had formed, the medium was removed and 3000 cerebellar neurons isolated from post-natal day 2-3 rats were plated into each well in SATO media (Doherty et al., Nature 343:464-466, 1990) supplemented with 2% FCS. All of the test peptides were added immediately before the neurons as a 2×stock prepared in SATO/2% FCS. […] The mean length of the longest neurite per cell was measured for 150-200 neurons sampled in replicate cultures as previously described (Williams et al., Neuron 13:583-594, 1994). […] Dose-response curves were evaluated and the EC50 values determined.
Effects of cyclic HAV peptides on N-cadherin function. […] The cells were then fixed and the length of the longest neurite on 150-200 neurons was determined by standard assay, as described above. […]

Assay [3] concerns 3T3 cells not expressing N-cadherin, N-CAM, or L1 (control cells). Briefly: Neurite outgrowth of mouse cerebellar neurons on control 3T3 cells (Example 2). Format: cell-based. Conditions: 500 μg/ml. As to the method:
Neurons were cultured on monolayers of 3T3 cells transfected with cDNA encoding N-cadherin essentially as described by Doherty and Walsh, Curr. Op. Neurobiol. 4:49-55, 1994; Williams et al., Neuron 13:583-594, 1994; Hall et al., Cell Adhesion and Commun. 3:441-450, 1996; Doherty and Walsh, Mol. Cell. Neurosci. 8:99-111, 1994; Safell et al., Neuron 18:231-242, 1997. Briefly, monolayers of control 3T3 fibroblasts and 3T3 fibroblasts that express N-cadherin were established by overnight culture of 80,000 cells in individual wells of an 8-chamber well tissue culture slide. 3000 cerebellar neurons isolated from post-natal day 3 mouse brains were cultured for 18 hours on the various monolayers in control media (SATO/2%FCS), or media supplemented with various concentrations of the cyclic peptide N-Ac-CHAVC-NH2 (SEQ ID NO:10) or a control peptide without the HAV sequence (N-Ac-CHGVC-NH2 (SEQ ID NO:20)). The cultures were then fixed and stained for GAP43 which specifically binds to the neurons and their neurites. The length of the longest neurite on each GAP43 positive neuron was then measured by computer assisted morphometry.

Assay [4] concerns the target L1 (Homo sapiens, UniProt P32004). Description: Neurite outgrowth of mouse cerebellar neurons on 3T3 cells expressing L1 (Example 2). Format: cell-based. The arrangement: expressed in transfected cells; host or cells: 3T3 cells. Conditions: 500 μg/mL.

Sequence of L1 (P32004 20-1257): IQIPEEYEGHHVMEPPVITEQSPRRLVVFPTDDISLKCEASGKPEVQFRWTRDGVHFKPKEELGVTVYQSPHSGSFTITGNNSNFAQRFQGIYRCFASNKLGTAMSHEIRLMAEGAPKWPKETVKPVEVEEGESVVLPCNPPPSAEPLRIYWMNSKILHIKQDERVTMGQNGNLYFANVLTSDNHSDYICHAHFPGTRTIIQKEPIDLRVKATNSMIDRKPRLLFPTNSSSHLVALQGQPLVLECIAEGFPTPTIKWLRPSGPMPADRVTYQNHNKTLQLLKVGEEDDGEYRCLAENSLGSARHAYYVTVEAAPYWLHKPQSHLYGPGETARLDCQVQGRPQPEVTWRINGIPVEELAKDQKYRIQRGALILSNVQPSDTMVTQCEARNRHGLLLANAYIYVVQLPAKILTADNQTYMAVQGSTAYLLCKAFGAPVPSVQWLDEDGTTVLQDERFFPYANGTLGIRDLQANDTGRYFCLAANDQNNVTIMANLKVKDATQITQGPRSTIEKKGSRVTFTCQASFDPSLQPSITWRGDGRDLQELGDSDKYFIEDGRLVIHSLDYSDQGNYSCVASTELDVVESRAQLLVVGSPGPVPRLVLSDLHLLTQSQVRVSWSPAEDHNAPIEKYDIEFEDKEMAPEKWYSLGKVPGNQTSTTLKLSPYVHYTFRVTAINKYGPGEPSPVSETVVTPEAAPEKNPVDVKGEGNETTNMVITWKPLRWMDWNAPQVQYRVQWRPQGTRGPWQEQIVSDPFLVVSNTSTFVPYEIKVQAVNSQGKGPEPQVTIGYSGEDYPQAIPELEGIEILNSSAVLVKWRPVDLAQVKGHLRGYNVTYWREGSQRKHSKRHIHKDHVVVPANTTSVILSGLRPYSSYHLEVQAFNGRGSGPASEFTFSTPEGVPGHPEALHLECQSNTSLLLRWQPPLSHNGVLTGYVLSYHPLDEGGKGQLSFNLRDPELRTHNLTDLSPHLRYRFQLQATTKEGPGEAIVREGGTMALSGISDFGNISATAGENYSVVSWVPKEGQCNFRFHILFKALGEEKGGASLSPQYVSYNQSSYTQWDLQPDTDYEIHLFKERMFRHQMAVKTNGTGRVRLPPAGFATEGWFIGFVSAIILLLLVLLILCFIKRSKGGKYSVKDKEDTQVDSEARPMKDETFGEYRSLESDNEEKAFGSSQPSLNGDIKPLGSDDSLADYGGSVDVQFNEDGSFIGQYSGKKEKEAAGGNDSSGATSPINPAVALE

Turning to `CC(=O)N[C@H]1CSSC[C@@H](C(N)=O)NC(=O)[C@H](C(C)C)NC(=O)[C@H](C)NC(=O)[C@H](Cc2c[nH]cn2)NC1=O` [N-Ac-CHAVC-NH2, N-Ac-Cys-His-Ala-Val-Cys-NH2], in assay [1] (500 μg/ml), the “effect on penetration of Oregon Green through the skin, in words” value is “slightly increased the penetration of Oregon Green” and the “effect on penetration of Rhodamine Green through the skin, in words” value was “significantly increased”. Also, in assay [1] (2.5 mg/ml), the “effect on penetration of Oregon Green through the skin, in words” value is recorded as “increased the penetration of Oregon Green” and the “effect on penetration of Rhodamine Green through the skin, in words” value is given as “significantly increased”. Moreover, the “effect on neurite extension over control 3T3 cells” value in assay [2] is listed as “no significant effect on neurite extension over control 3T3 cells; also recorded: had no effect on the basal growth over 3T3 cells”. Further, the “effect on neurite outgrowth on control 3T3 cells” value in assay [3] is listed as “did not inhibit neurite outgrowth”. Also, in assay [4], the “effect on neurite outgrowth on 3T3 cells expressing L1” value is given as “did not inhibit neurite outgrowth”.
